These results are taken from patent US11858877B2 (priority 2019, dated 2024).

The subject of series [1] is mature TNFR1 complex. Description: Live-cell imaging of FP-IKK puncta in TNF-stimulated U2OS cells. It counts as cell-based, human. The settings on record: pretreated with compound before 100 ng/mL TNF. The method, then: (§1) Live cells were imaged in an environmentally controlled chamber (37° C., 5% CO2) on a DeltaVision Elite microscope equipped with a pco.edge sCMOS camera and an Insight solid-state illumination module (GE). U2OS cells expressing FP-RelA/IKKγ were seeded at a density of 25000 cells/well 24 hours prior to live-cell imaging experiments on no. 1.5 glass bottom 96 well imaging plates (Matriplate). For imaging of FP-RelA nuclear translocation, live-cells were pre-treated with DMSO or indicated concentrations of compounds for 2 hours before exposure to either 100 ng/ml recombinant human TNF (Peprotech) or 100 ng/ml recombinant human IL1β (Peprotech). Wide-field epifluorescence and DIC images were collected using a 20× […] objective (0.45NA; Olympus). Cells were imaged for at least 30 minutes prior to addition of compounds. For detection of IKKγ puncta, live-cells were pre-treated with DMSO or indicated concentration of compounds for 2 hours before exposure to 100 ng/ml TNF. Wide-field epifluorescence and DIC images were collected using a 60× […] objective. […] Time-lapse images were collected over at least 4 fields per condition with a temporal resolution of 5 minutes per frame. Quantification of nuclear FP-RelA localization and the formation IKKγ puncta from flat-field and background corrected images was performed using customized scripts in Matlab and ImageJ.

Series [2] has as its system U2OS cells. Description: Compound toxicity comparison, LIVE/DEAD Cell Imaging Kit. It counts as cell-based, human. The following applies: 10 μM, 2 h, 16 h or 24 h. The procedure:
Cytotoxicity of the three compounds was compared with Bay 11-7082 (Cayman, 10010266), an inhibitor of the NF-κB pathway at working concentrations of 1-10 μM, using the LIVE/DEAD Cell Imaging Kit (488/570) (Invitrogen, R37601). For each condition, 15,000 U2OS cells were seeded in 200 μL of growth medium in each well of 96-well plate 48 h before microscopy. Next, medium was changed to medium containing either DMSO, 10 μM of indicated compound, or 10 μM of Bay 11-7082 for the indicated duration (2 h, 16 h, or 24 h). Before imaging, medium was changed to phenol red-free FluoBrite DMEM (Gibco, A18967-01) containing 300 ng/mL of Hoechst 33342, and 1:10000 of both Live Green and Dead Red dyes of the LIVE/DEAD Cell Imaging Kit. Cells were incubated for 60 minutes and imaged on the Delta Vision Elite imaging system at 20× magnification with a […] objective (0.45NA; Olympus). Analysis was done using Cell Profiler to segment cells and quantify median nuclear intensity values. Further analysis was performed using custom scripts in MATLAB. Data from biological triplicates were plotted as the mean ± SD.

For series [3], the system named is IKKγ. Description: Western blot of IKKγ expression in CRISPR-modified U2OS cells. The settings on record: Actin-corrected band intensity. It counts as cell-based, human. The method, then:
U2OS cells (parental and expressing EGFP-RelA/IKKγ via CRISPR Knock-in) were cultured for 24 hrs in complete growth medium. After treatments, cells were lysed in SDS-based lysis buffer consisting of 120 mM Tris-Cl, pH 6.8, 4% SDS supplemented with protease and phosphatase inhibitors at 4° C. for 30 min. Protein extracts were clarified by centrifugation at 4° C. at 12,000×g for 10 min. Lysate protein levels were quantified by BCA assay (Pierce). Samples were separated by SDS-PAGE, 25 μg total protein per lane, then transferred to PVDF membranes. Blocking was done in 5% milk in TBS for 1 hour. Primary antibodies directed at RelA and β-actin (#4764 and #3700 respectively; Cell Signaling Technology), IKKγ and GAPDH (sc-8330 and sc25778 respectively; Santa Cruz) were diluted in 5% milk in TBS-T and incubated overnight at 4° C. Alexa 680/800-conjugated secondary antibodies (LICOR) were used in combination with an Odyssey (LI-COR) scanner for detection and quantification of band intensities.

Series [4] concerns IL1-induced dynamics of nuclear NF-kB. Description: Live-cell imaging of IL1-induced nuclear FP-RelA (NF-kB) dynamics in U2OS cells. The following applies: 10 μM compound, 100 ng/mL IL1. The class given is cell-based, human. The procedure: Live cells were imaged in an environmentally controlled chamber (37° C., 5% CO2) on a DeltaVision Elite microscope equipped with a pco.edge sCMOS camera and an Insight solid-state illumination module (GE). U2OS cells expressing FP-RelA/IKKγ were seeded at a density of 25000 cells/well 24 hours prior to live-cell imaging experiments on no. 1.5 glass bottom 96 well imaging plates (Matriplate). For imaging of FP-RelA nuclear translocation, live-cells were pre-treated with DMSO or indicated concentrations of compounds for 2 hours before exposure to either 100 ng/ml recombinant human TNF (Peprotech) or 100 ng/ml recombinant human IL1β (Peprotech). Wide-field epifluorescence and DIC images were collected using a 20× […] objective (0.45NA; Olympus). […] Quantification of nuclear FP-RelA localization and the formation IKKγ puncta from flat-field and background corrected images was performed using customized scripts in Matlab and ImageJ.
For permutation tests, data from the TNF-only and the indicated experimental condition were combined and randomly distributed into ‘Permuted control’ and ‘Permuted experimental’ bins without replacement, preserving the size of the original control and experimental data sets. 10^6 permutations were performed and the difference between the means of permuted control and experimental data were calculated for each condition to generate a histogram. […]

For series [5], the system named is TNF-induced nuclear translocation of NF-kB. Description: Live-cell imaging of TNF-induced nuclear FP-RelA (NF-kB) translocation in single U2OS cells. The class given is cell-based, human. The following applies: for Maximum fold change (Max) of nuclear FP-RelA / area under the fold change curve (AUC) of nuclear FP-RelA: 10 μM compound pretreatment before addition of TNF; for potency in restricting the signaling network upstream of NF-kB activation: TNF-stimulated U2OS FP-RelA cells; for nuclear mobilization of NF-kB: U2OS FP-RelA cells pre-treated with compound before exposure to TNF. The method, then:
Rep., 22:585-599 (2018)).
To quantify the compounds' effect on NF-kB dynamics, each single-cell trajectory was decomposed into a series of descriptors (FIG. 3c) that transmit information within the cell about extracellular cytokine concentrations (Zhang et al., Cell. Syst., 5:638-645 e635 (2017)).
as §1
For permutation tests, data from the TNF-only and the indicated experimental condition were combined and randomly distributed into ‘Permuted control’ and ‘Permuted experimental’ bins without replacement, preserving the size of the original control and experimental data sets. 10^6 permutations were performed and the difference between the means of permuted control and experimental data were calculated for each condition to generate a histogram. Two-tailed p-values were determined by computing the fraction of permuted data sets where Δmeanpermuted≥Δmeanunpermuted (FIGS. 12, 13, and 15).

Series [6] has as its target T1, full length TRAF2 (Homo sapiens, UniProt Q12933).
T1 construct: dose-dependent stabilizing effect on full length TRAF2; purchased Rockland
T1 sequence (Q12933 1-501): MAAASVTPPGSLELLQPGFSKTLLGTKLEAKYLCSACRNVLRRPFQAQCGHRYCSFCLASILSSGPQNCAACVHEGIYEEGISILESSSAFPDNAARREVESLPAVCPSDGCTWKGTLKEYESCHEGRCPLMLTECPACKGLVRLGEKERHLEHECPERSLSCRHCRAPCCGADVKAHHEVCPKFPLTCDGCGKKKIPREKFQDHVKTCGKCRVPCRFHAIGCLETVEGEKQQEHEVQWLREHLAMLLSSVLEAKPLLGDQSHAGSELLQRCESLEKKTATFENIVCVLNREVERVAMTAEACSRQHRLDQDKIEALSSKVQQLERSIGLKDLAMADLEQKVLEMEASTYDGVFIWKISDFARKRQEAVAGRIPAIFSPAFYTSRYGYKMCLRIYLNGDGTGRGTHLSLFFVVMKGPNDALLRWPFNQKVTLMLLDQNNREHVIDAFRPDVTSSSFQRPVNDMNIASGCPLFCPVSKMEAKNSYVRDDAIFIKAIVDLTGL
Description: Fluorescence-based thermal shift assay of TRAF2. It counts as binding. The following applies: 1 uM GST-TRAF2, melt curve 25-99° C. The method, then: To test whether the compounds interact with TRAF2 in vitro, the thermal stability of purified TRAF2 in the presence of each compound was measured.
TRAF2—compound interactions were measured by fluorescence-based thermal shift using an Applied Biosystems ABI QuantStudio(TM) 6 Flex System. […] PCR plates were covered with optical seal, shaken, and centrifuged after protein and compounds were added. The instrument was programmed in the Melt Curve mode and the Standard speed run. The reporter was selected as Rox and None for the quencher. Each melt curve was programmed as follows: 25° C. for 2 min, followed by a 0.05° C. increase per second from 25° C. to 99° C., and finally 99° C. for 2min. Fluorescence intensity was collected continuously. In the Melt Curve Filter section, X4 (580 ±10)-M4 (623±14) was selected for the Excitation Filter-Emission Filter. The raw data was extracted in MS-Excel format.

The target in series [7] is T2, recombinant activated IKKβ (Homo sapiens, UniProt O14920).
T2 construct: purchased Promega V4502
T2 sequence (O14920 1-756): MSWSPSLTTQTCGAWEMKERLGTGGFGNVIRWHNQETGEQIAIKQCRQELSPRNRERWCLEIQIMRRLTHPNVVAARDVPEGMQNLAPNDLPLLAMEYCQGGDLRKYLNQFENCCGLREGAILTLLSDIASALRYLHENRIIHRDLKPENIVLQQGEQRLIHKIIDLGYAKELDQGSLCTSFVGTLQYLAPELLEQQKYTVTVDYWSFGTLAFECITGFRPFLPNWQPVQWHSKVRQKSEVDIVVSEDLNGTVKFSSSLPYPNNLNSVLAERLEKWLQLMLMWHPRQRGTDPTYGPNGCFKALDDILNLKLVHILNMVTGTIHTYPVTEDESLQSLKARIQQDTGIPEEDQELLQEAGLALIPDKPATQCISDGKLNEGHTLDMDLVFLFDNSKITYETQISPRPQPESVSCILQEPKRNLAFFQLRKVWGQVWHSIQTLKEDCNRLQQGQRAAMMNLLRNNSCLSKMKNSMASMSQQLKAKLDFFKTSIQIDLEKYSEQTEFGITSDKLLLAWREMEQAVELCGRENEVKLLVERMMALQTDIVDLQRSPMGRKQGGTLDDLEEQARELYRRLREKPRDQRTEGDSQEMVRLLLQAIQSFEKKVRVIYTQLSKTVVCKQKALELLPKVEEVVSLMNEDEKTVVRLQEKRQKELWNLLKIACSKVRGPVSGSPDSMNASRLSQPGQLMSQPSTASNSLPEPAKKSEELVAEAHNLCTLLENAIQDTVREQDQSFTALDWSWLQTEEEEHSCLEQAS
Description: In vitro IKKβ kinase assay (ADP-Glo). The class given is biochemical. The settings on record: for IKKβ kinase activity: at 10-fold higher concentrations than used in cell-based experiments; for inhibitory activity over IKKβ kinase activity: at the concentrations used in this study. The procedure:
1× kinase buffer A (40 mM Tris-HCl pH 7.4, 20 mM MgCl2, 0.1 mg/mL BSA, supplemented with 2 mM MnCl2, 2 mM DTT and 100 μM Sodium vanadate) was used to prepare all components of the reaction. All components were prepared in a 96-well plate and transferred to every other well of a 384-well opaque plate (Sigma-Aldrich, CLS3825-10EA) using a multichannel pipet. A 2.5× ATP/IKKtide substrate mix (62.5 μM ATP mixed with 0.5 μg/μL IKKtide) was prepared, and a 5× concentration of the indicated concentration of compounds in 0.5% DMSO, maintaining a final DMSO concentration of 0.1% in all reactions. […] The plate was briefly spun, and the reaction incubated at room temperature for 1 h. Next, 5 μL of ADP-Glo reagent were added to each well, spun and incubated for 40 minutes at room temperature. Finally, 10 μL of Kinase Detection Reagent were added to each well and incubated for 30 minutes at room temperature. Luminescence from each well was measured using an integration time of 500 ms in a M4 microplate reader (SpectraMax). Data from triplicate reactions were extracted and plotted.
A general note: In ADP-Glo the light output rises with the ADP produced.

As for `CCC(OC(=O)c1ccc(S(C)(=O)=O)c([N+](=O)[O-])c1)C(=O)NC1C2CC3CC(C2)CC1C3` (stereo not shown) [Compound 3], in series [1], the “number of TNF-induced FP-IKK puncta” value was “greatly reduced”. Also, the “cytotoxicity (fraction of surviving cells)” value in series [2] was “low cytotoxicity”. Further, the “overall expression level of IKKγ” value in series [3] is reported as “reduced”. Besides, in series [4], the “IL1-induced dynamics of nuclear NF-kB vs IL1-only control cells” value was “indistinguishable”. In series [5], the “Maximum fold change (Max) of nuclear FP-RelA” value was “significantly less”, the “area under the fold change curve (AUC) of nuclear FP-RelA” value is given as “significantly less”, the “potency in restricting the signaling network upstream of NF-kB activation” value is reported as “low micromolar potency” and the “nuclear mobilization of NF-kB” value is “reduced with increasing concentration”. Also, in series [6], the “dose-dependent stabilizing effect on full length TRAF2 (thermal shift)” value was “moderate”. Besides, in series [7], the IKKβ kinase activity result is listed as “not inhibited” and the “inhibitory activity over IKKβ kinase activity” value is “no direct inhibitory activity”.

For `CC(C)CN1CCN(C(=O)COC(=O)c2ccc(S(C)(=O)=O)c([N+](=O)[O-])c2)CC1` [Compound 2], the “number of TNF-induced FP-IKK puncta” value in series [1] is “greatly reduced”. In addition, the “cytotoxicity (fraction of surviving cells)” value in series [2] is “low cytotoxicity”. In series [3], the “overall expression level of IKKγ” value is “reduced”. In addition, the “IL1-induced dynamics of nuclear NF-kB vs IL1-only control cells” value in series [4] is listed as “indistinguishable”. Also, in series [5], the “Maximum fold change (Max) of nuclear FP-RelA” value is “significantly less”, the “area under the fold change curve (AUC) of nuclear FP-RelA” value was “significantly less”, the “potency in restricting the signaling network upstream of NF-kB activation” value was “low micromolar potency” and the “nuclear mobilization of NF-kB” value is “reduced with increasing concentration”. Moreover, the “dose-dependent stabilizing effect on full length TRAF2 (thermal shift)” value in series [6] is on record as “subtle”. Besides, in series [7], the IKKβ kinase activity result is listed as “not inhibited” and the “inhibitory activity over IKKβ kinase activity” value is reported as “no direct inhibitory activity”.
